One assay relates to dTAG-HA SLCs. The assay is described as follows: dTAG-driven SLC degradation, statements across SLCs (temporal control, chemical rescue). Type of assay: cell-based, human. The following applies: dTAG-tagged SLCs; FIGS. 5E and F. On the procedure: (D)Chemical “rescue” of dTAG-driven degradation of SLCs. HAP1 cell lines expressing dTAG-HA SLC1A5 or dTAG-HA SLC38A9 were treated with 0.5 µM dTAG7 for 12 or 18 hours, respectively. These cells were also treated with chloroquine (CQ, 50 µM), bortezomib (bort., 1 µM), MG-132 (MG, 1 µM), MLN4924 (MLN, 1 µM), pomalidomide (poma., 10 µM), or bafilomycin A1 (bafi., 2.5 µM). SLC degradation was rescued by inhibiting CRL activity or the proteasome, but not by inhibiting the lysosome machinery.
Western blotting with antibodies against the HA-tag and the total protein mirrored the observed pattern.
(D) Chemical “rescue” of dTAG driven degradation. HAP1 cell lines expressing dTAGHA SLC2A3, 39A7, […], and MTCH2 were treated with 0.5 µM dTAG7 for 12 hours. A cell line expressing dTAG-HA SLC38A2 was treated with 0.5 µM dTAG7 for 18 hours. These cells were treated with MLN4924 (MLN, 1 µM), pomalidomide (poma., 10 µM), or bafilomycin A1 (bafi., 2.5 µM) to monitor the inhibition of degradation.
For immunoblotting, whole cell extracts were prepared using RIPA lysis buffer (25 mM Tris/HCl pH 7.6, 150 mM NaCl, 1% NP-40, 1% sodium deoxycholate, 0.1% SDS, EDTA-free protease inhibitor (Roche) and phosphatase inhibitors 2+3 (Sigma- Aldrich)). Cell extracts were incubated for 15 min on ice in 50 µL RIPA buffer. Lysates were cleared by centrifugation (20,000 g, 10 min, 4° C.). Protein extracts were quantified and normalized using the BCA assay (Thermo Scientific). Where indicated, cleared lysates where treated with the enzyme PNGase (NEB) to deglycosylate the proteins. Lämmli Sample Buffer 4x was added to protein extract samples without boiling. Cell lysates were run on SDS-polyacrylamide gel in tris-glycine running buffer and transferred to nitrocellulose membranes Amersham Protran 0.45 µm (GE Healthcare), according to standard methods. The membranes were incubated with the antibodies indicated below and visualized with horseradish peroxidase-conjugated secondary antibodies (described below) using the ECL Western blotting system (Thermo Scientific). The following antibodies were used: GAPDH (Santa Cruz, sc-365062), Actin (Cyoskeleton Inc., #AAN01), HA (Covance, cat #MMS-101R), HA (Cell Signaling, #3724), HA7-HRP (Sigma, H6533), HA (Roche, #11867423001), SLC9A1 (Santa Cruz, sc-136239), SLC2A1 (Cell Signaling, #12939), SLC38A1 (Cell Signaling, #36057). Secondary antibody for imaging goat anti-Rat IgG Alexa Fluor 488 (ThermoFisher, A11006). The following secondary antibodies were used for immunoblotting: goat anti-mouse HRP (115-035-003, Jackson ImmunoResearch) and goat anti-rabbit HRP (111-035-003, Jackson ImmunoResearch).
SLCs were ectopically expressed as fusions to a mutated FKBP domain, also known as the dTAG system. In brief, a dTAGed protein is amenable to degradation by specific chimeric degrader molecules (e.g. dTAG7/dTAG13) that simultaneously bind to the dTAG and the CRL4CRBN E3 ligase, inducing molecular proximity and ensuing degradation by the proteasome. Given that SLCs were expressed in all cellular compartments, the amenability of differentially located SLCs to targeted proteolysis was tested (FIG. 1A, upper graph). Each of the tested SLCs was stably expressed in HAP1 cells, and subcellular localization was assessed by immunofluorescence microscopy (FIG. 1B). In detail, SLCs located at the cell surface (SLC1A5, SLC38A1, SLC2A1, SLC2A3, SLC16A1, SLC4A4, SLC7A3), cell surface and vesicles (SLC38A2), lysosome (SLC38A9), Golgi (SLC35B2, SLC33A1), mitochondria (SLC25A26, SLC25A1, and MTCH2) and endoplasmic reticulum (SLC39A7, SLC30A9) were assayed. Cellular treatment with a specific degrader molecule (dTAG7 or dTAG13) led to identification of SLCs expressed at cell surface, endoplasmic reticulum and lysosome that were amenable to targeted degradation (FIGS. 1C, 5A). The dTAG could be placed on either N- or C-terminus of the SLC, if both face the cytoplasm (FIG. 5B), as exemplified by SLC2A3. […]

In another assay the target is T1, dTAG-HA SLC38A9 (Homo sapiens, UniProt Q8NBW4+Q96SW2).
T1 construct: expressed in transfected cells
The assay is described as follows: Targeted degradation of dTAG-tagged SLC38A9 (western blot). Type of assay: cell-based. On the procedure:
(A) HAP1 cells expressing dTAG-HA SLC38A9, 38A2, or 38A1 were treated with 0.5 µM dTAG13 for 16, 24 or 48 hours.
SLC1A5, SLC2A1, SLC2A3, SLC16A1, SLC38A1, SLC38A2 were obtained as gateway-compatible pENTR/pDONR vectors from the Harvard PlasmID Repository. SLC39A7 was obtained from Dharmacon, GE Healthcare. The following vectors were synthesized by Genescript: SLC4A4, SLC7A3, SLC38A9, SLC25A1, SLC9A1, SLC9A2, SLC9A3, SLC9A4, SLC9A5, SLC9A6, SLC9A7, SLC9A8, and SLC9B2. SLC30A9, SLC33A1, SLC35B2, SLC25A26, and MTCH2 were a gift from the RESOLUTE consortium. cDNAs were transferred into gateway-compatible lentiviral expression vectors: pLX305 dTAG vectors (Addgene #91797/8) or pRRL Strep-HA (described previously43, EF1a promotor driven expression) using LR recombination (ThermoFisher Scientific). […]
For immunoblotting, whole cell extracts were prepared using RIPA lysis buffer (25 mM Tris/HCl pH 7.6, 150 mM NaCl, 1% NP-40, 1% sodium deoxycholate, 0.1% SDS, EDTA-free protease inhibitor (Roche) and phosphatase inhibitors 2+3 (Sigma- Aldrich)). […] Protein extracts were quantified and normalized using the BCA assay (Thermo Scientific). […]
SLCs were ectopically expressed as fusions to a mutated FKBP domain, also known as the dTAG system. […] Each of the tested SLCs was stably expressed in HAP1 cells, and subcellular localization was assessed by immunofluorescence microscopy (FIG. 1B). […]

The results in this text go back to US20230241226A1, “COMPOUNDS FOR TARGETED DEGRADATION OF CARRIER PROTEINS AND USES THEREOF” (CeMM - Forschungszentrum für Molekulare Medizin GmbH, priority 2019, published 2023).

T1 sequence (Q8NBW4 with tags, fused parts or gaps): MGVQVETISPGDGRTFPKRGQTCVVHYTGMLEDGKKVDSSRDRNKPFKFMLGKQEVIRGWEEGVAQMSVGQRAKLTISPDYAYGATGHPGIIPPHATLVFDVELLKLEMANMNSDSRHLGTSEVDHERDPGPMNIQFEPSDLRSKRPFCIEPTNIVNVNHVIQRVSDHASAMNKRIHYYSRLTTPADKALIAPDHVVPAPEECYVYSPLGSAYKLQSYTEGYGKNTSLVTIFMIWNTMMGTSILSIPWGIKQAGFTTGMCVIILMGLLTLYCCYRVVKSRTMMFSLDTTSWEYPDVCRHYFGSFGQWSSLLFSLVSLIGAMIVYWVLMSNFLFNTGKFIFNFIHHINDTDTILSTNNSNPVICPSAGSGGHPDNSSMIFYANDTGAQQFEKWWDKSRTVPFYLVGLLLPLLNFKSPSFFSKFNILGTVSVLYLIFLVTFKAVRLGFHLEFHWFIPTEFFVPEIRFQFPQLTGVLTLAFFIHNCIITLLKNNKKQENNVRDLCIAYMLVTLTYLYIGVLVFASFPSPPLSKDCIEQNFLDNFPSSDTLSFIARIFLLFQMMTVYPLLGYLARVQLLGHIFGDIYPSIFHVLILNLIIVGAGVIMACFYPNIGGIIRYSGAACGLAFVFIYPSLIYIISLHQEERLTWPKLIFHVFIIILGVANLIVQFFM
T1 sequence (Q96SW2 whole entry): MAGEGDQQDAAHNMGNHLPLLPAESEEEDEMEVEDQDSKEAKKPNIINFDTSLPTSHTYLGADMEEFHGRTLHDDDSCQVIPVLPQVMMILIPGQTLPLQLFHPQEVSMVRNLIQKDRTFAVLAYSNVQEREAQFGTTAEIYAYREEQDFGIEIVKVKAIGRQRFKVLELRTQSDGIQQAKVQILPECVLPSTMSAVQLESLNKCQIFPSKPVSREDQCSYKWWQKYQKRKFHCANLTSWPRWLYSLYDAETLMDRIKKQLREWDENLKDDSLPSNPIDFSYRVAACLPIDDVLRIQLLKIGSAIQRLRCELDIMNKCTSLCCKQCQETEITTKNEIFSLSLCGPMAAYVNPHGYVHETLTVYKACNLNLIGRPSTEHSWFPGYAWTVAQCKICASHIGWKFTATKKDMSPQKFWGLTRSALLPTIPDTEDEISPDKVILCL
T1 sequence (Q16531 whole entry partner): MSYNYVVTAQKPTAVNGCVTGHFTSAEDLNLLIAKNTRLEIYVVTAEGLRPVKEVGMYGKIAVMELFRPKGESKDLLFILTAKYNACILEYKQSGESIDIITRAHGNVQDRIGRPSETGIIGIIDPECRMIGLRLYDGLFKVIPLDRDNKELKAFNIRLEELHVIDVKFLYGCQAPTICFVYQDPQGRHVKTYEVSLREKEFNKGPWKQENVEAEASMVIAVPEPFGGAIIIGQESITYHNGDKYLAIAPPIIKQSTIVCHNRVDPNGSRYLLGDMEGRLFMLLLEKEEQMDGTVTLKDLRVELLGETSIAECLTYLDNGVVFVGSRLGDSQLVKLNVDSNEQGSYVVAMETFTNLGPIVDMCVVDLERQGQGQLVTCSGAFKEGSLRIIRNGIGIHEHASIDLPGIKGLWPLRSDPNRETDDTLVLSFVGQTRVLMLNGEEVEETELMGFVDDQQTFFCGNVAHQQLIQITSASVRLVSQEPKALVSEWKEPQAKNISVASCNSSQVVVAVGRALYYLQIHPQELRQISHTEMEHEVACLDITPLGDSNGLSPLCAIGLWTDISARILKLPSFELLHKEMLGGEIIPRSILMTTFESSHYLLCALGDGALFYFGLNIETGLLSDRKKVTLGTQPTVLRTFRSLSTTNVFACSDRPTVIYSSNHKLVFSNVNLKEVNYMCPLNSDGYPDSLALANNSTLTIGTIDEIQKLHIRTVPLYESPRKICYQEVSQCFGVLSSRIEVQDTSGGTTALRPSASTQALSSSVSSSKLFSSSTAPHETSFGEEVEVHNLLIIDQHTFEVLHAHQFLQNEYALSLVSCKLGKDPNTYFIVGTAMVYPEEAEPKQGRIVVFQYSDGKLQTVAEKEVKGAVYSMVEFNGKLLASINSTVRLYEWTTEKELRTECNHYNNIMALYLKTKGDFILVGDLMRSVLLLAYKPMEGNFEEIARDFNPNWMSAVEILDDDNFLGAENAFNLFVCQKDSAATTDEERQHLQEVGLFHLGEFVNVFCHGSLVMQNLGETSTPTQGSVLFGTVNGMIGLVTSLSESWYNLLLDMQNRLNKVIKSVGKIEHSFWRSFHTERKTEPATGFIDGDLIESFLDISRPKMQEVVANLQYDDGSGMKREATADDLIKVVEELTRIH

With `CC[C@H](C(=O)N1CCCC[C@H]1C(=O)O[C@H](CCc1ccc(OC)c(OC)c1)c1ccccc1OCC(=O)NCCCOCCOCCOCCCNC(=O)COc1cccc2c1C(=O)N(C1CCC(=O)NC1=O)C2=O)c1cc(OC)c(OC)c(OC)c1` (stereo partly shown) [dTAG7], in the assay on dTAG-HA SLCs, the “temporal control of targeted SLC degradation” value is on record as “reversible degradation”. The “reversibility of degradation of the target SLC” value at dTAG-HA SLC38A9 (HAP1, 0.5 µM, 24, 48 or 72 hours) is listed as “reversible degradation”.

As for `CC[C@H](C(=O)N1CCCC[C@H]1C(=O)O[C@H](CCc1ccc(OC)c(OC)c1)c1ccccc1OCC(=O)NCCCCCCOc1cccc2c1C(=O)N(C1CCC(=O)NC1=O)C2=O)c1cc(OC)c(OC)c(OC)c1` (stereo partly shown) [dTAG13], the “time for which target degradation is maintained” value in the assay on dTAG-HA SLCs is on record as “at least 72 h”. For the same compound, on dTAG-HA SLC38A9 (HAP1, 0.5 µM, 16, 24 or 48 hours), the “degradation of the target SLC” value is on record as “Near-complete degradation”.
